Laboratory results: patent US5726186A, “Pentacyclic compounds, intermediates, processes, compositions, and methods” (Eli Lilly and Company, priority 1996, dated 1998)
Each block holds one molecule with its values, some of them ahead of it.

Columns and labels:
uterus = experiment: Wet uterine weight in ovariectomized rats (post-menopausal model); assay type: in vivo, female Sprague Dawley rats (ovariectomized); details: oral, OVX rats
Experimental: In the examples illustrating the methods, a post-menopausal model was used in which effects of different treatments upon circulating lipids were determined.
(§1) Seventy-five day old female Sprague Dawley rats (weight range of 200 to 225 g) were obtained from Charles River Laboratories (Portage, Mich.). The animals were either bilaterally ovariectomized (OVX) or exposed to a Sham surgical procedure at Charles River Laboratories, and then shipped after one week. Upon arrival, they were housed in metal hanging cages in groups of 3 or 4 per cage and had ad libitum access to food (calcium content approximately 0.5%) and water for one week. Room temperature was maintained at 22.2°±1.7° C. with a minimum relative humidity of 40%. The photoperiod in the room was 12 hours light and 12 hours dark.
(§2) Dosing Regimen Tissue Collection. After a one week acclimation period (therefore, two weeks post-OVX) daily dosing with test compound was initiated. 17a-ethynyl estradiol or the test compound were given orally, unless otherwise stated, as a suspension in 1% carboxymethylcellulose or dissolved in 20% cyclodextrin. Animals were dosed daily for 4 days. Following the dosing regimen, animals were weighed and anesthetized with a ketamine: Xylazine (2:1, V:V) mixture and a blood sample was collected by cardiac puncture. The animals were then sacrificed by asphyxiation with CO2, the uterus was removed through a midline incision, and a wet uterine weight was determined.
(§3) The data presented in the Tables 1 below reflects the response of 5 to 6 rats per treatment.

[1] = test system: Uterine Eosinophil Peroxidase (EPO); experiment: Uterine Eosinophil Peroxidase (EPO) Assay; assay type: in vivo, female Sprague Dawley rats (ovariectomized); parameters: Uterine EPO (V. max): unit not given here; details: oral, daily for 4 days, OVX rats; for Uterine EPO (V. max): 450 nm
Text: as §1, §2
Uterine Eosinophil Peroxidase (EPO) Assay. Uteri were kept at 4° C. until time of enzymatic analysis. The uteri were then homogenized in 50 volumes of 50 mM Tris buffer (pH-8.0) containing 0.005% Triton X-100. Upon addition of 0.01% hydrogen peroxide and 10 mM O-phenylenediamine (final concentrations) in Tris buffer, increase in absorbance was monitored for one minute at 450 nm. The presence of eosonophils in the uterus is an indication of estrogenic activity of a compound. The maximal velocity of a 15 second interval was determined over the initial, linear portion of the reaction curve.
As is expressed in the below data, estrogenicity also was assessed by evaluating the adverse response of eosinophil infiltration into the uterus.
as §3

Serum Cholesterol = experiment: Serum cholesterol analysis in ovariectomized rats; assay type: in vivo, female Sprague Dawley rats (ovariectomized); details: oral, OVX rats
Text: as §1, §2
Cholesterol Analysis. Blood samples were allowed to clot at room temperature for 2 hours, and serum was obtained following centrifugation for 10 minutes at 3000 rpm. Serum cholesterol was determined using a Boehringer Mannheim Diagnostics high performance cholesterol assay. Briefly the cholesterol was oxidized to cholest-4-en-3-one and hydrogen peroxide. The hydrogen peroxide was then reacted with phenol and 4-aminophenazone in the presence of peroxidase to produce a p-quinone imine dye, which was read spectrophotemetrically at 500 nm. Cholesterol concentration was then calculated against a standard curve. The entire assay was automated using a Biomek Automated Workstation.
as §3

[2] = test system: MCF-7 breast adenocarcinoma cells; experiment: MCF-7 Proliferation Assay (tritiated thymidine); assay type: cell-based; details: Homo sapiens, MCF7; MCF-7 cells, 48 hours, tritiated thymidine pulse 4 hours
Experimental: MCF-7 breast adenocarcinoma cells (ATCC HTB 22) were maintained in MEM (minimal essential medium, phenol red-free, Sigma, St. Louis, Mo.) supplimented with 10% fetal bovine serum […] (V/V), L-glutamine (2 mM), sodium pyruvate (1 mM), HEPES {(N-[2-hydroxyethyl]piperazine-N'-[2-ethanesulfonic acid]10 mM)}, non-essential amino acids and bovine insulin (1 ug/mL) (maintenance medium). Ten days prior to assay, MCF-7 cells were switched to maintenance medium supplemented with 10% dextran coated charcoal stripped fetal bovine serum (DCC-FBS) assay medium) in place of 10% FBS to deplete internal stores of steroids. MCF-7 cells were removed from maintenance flasks using cell dissociation medium (Ca++/Mg++ free HBSS (phenol red-free) supplemented with 10 mM HEPES and 2 mM EDTA). Cells were washed twice with assay medium and adjusted to 80,000 cells/mL. Approximately […] (8,000 cells) were added to flat-bottom microculture wells (Costar 3596) and incubated at 37° C. in a 5% CO2 humidified incubator for 48 hours to allow for cell adherence and equilibration after transfer. Serial dilutions of drugs or DMSO as a diluent control were prepared in assay medium and […] to triplicate microcultures followed by […] assay medium for a final volume of […]. After an additional 48 hours at 37° C. in a 5% CO2 humidified incubator, microcultures were pulsed with tritiated thymidine (1 uCi/well) for 4 hours. Cultures were terminated by freezing at -70° C. for 24 hours followed by thawing and harvesting of microcultures using a Skatron Semiautomatic Cell Harvester. Samples were counted by liquid scintillation using a Wallac BetaPlace b counter. Results in Table 3 below show the IC50 for certain compounds of the present invention.

Distal Femur Metaphysis = experiment: Osteoporosis test, distal femur metaphysis X-ray image analysis; assay type: in vivo, female Sprague Dawley rats (ovariectomized); details: oral; for Distal Femur Metaphysis (X-ray Image Analysis-Gray Score), percent protection relative to ovariectomy: daily for 35 days, in 20% hydroxypropyl b-cyclodextrin
Text: Seventy-five day old female Sprague Dawley rats (weight range of 200 to 225 g) were obtained from Charles River Laboratories (Portage, Mich.). The animals were either bilaterally ovariectomized (OVX) or exposed to a Sham surgical procedure at Charles River Laboratories, and then shipped after one week. Upon arrival, they were housed in metal hanging cages in groups of 3 or 4 per cage and had ad libitum access to food (calcium content approximately 0.5%) and water for one week. Room temperature was maintained at 22.2°±1.7° C. with a minimum relative humidity of 40%. The photoperiod in the room was 12 hours light and 12 hours dark. Following the General Preparation Procedure, infra, the rats were treated daily for 35 days (6 rats per treatment group) and sacrificed by carbon dioxide asphyxiation on the 36th day. The 35 day time period was sufficient to allow maximal reduction in bone density, measured as described herein. At the time of sacrifice, the uteri were removed, dissected free of extraneous tissue, and the fluid contents were expelled before determination of wet weight in order to confirm estrogen deficiency associated with complete ovariectomy. […] The uteri were then placed in 10% neutral buffered formalin to allow for subsequent histological analysis. The right femurs were excised and digitilized x-rays generated and analyzed by an image analysis program (NIH image) at the distal metaphysis. The proximal aspect of the tibiae from these animals were also scanned by quantitative computed tomography. In accordance with the above procedures, compounds of the present invention and ethynyl estradiol (EE2) in 20% hydroxypropyl b-cyclodextrin were orally administered to test animals. Distal femur metaphysis data presented in Tables 2 and 3 below are the results of formula I compound treatments compared to intact and ovariectomized test animals. Results are reported as percent protection relative to ovariectomy.

[3] = Rattus norvegicus, 96 h, daily for 4 days, read-out: Uterine Weight (% increase vs. OVX)
[4] = Rattus norvegicus, 96 h, daily for 4 days, read-out: Serum Cholesterol (% decrease vs. OVX)

IC50 [2]: 5 nM
Compound: CC(C)(C)C(=O)Oc1ccc2c(c1)OC(c1ccc(OCCN3CCCCC3)cc1)c1c-2sc2cc(OC(=O)C(C)(C)C)ccc12 (stereo not drawn) [Example 4, 3,9-Bis(pivaloyloxy)-6-[4-[2-(1-piperidinyl)ethoxy]phenyl]-6-H-[1]benzothieno[3,2-c][1]benzopyran]
change in vivo at 0.1 mg/kg (uterus; [3]): 10%
change in vivo at 1 mg/kg (uterus; [3]): 15.3%
Uterine EPO (V. max) ([1]; 0.1 mg/kg): 3.3
Uterine EPO (V. max) ([1]; 1.0 mg/kg): 3.3
inhibition in vivo at 0.1 mg/kg (Serum Cholesterol; [4]): 62.6%
inhibition in vivo at 1 mg/kg (Serum Cholesterol; [4]): 48.2%

Compound: Oc1ccc2c(c1)OC(c1ccc(OCCN3CCCCC3)cc1)c1c-2ccc2cc(O)ccc12 (stereo not drawn) [Example 11b, 2,8-Dihydroxy-5-[4-[2-(1-piperidinyl)ethoxy]phenyl]-5H-benzo[b]naphtho[2,1-d]pyran]
change in vivo at 0.1 mg/kg (uterus; [3]): 13.6%
change in vivo at 1 mg/kg (uterus; [3]): 7.6%
change in vivo at 10 mg/kg (uterus; [3]): -4.1%
Uterine EPO (V. max) ([1]; 0.1 mg/kg): 9.3
Uterine EPO (V. max) ([1]; 1.0 mg/kg): 12.0
Uterine EPO (V. max) ([1]; 10.0 mg/kg): 7.8
inhibition in vivo at 0.1 mg/kg (Serum Cholesterol; [4]): 66.4%
inhibition in vivo at 1 mg/kg (Serum Cholesterol; [4]): 73.9%
inhibition in vivo at 10 mg/kg (Serum Cholesterol; [4]): 61.4%
Distal Femur Metaphysis (X-ray Image Analysis-Gray Score), percent protection relative to ovariectomy (Distal Femur Metaphysis; 0.01 mg/kg): 45.6%
Distal Femur Metaphysis (X-ray Image Analysis-Gray Score), percent protection relative to ovariectomy (Distal Femur Metaphysis; 0.1 mg/kg): 38.5%
Distal Femur Metaphysis (X-ray Image Analysis-Gray Score), percent protection relative to ovariectomy (Distal Femur Metaphysis; 1.0 mg/kg): 58.5%
Distal Femur Metaphysis (X-ray Image Analysis-Gray Score), percent protection relative to ovariectomy (Distal Femur Metaphysis; 10.0 mg/kg): 37.3%

IC50 [2]: 100 nM
Compound: COc1ccc2c(c1)OC(c1ccc(OCCN3CCCCC3)cc1)c1c-2sc2cc(OC)ccc12 (stereo not drawn) [Example 2, 3,9-Dimethoxy-6-[4-[2-(1-piperidinyl)ethoxy]phenyl]-6-H-[1]benzothieno[3,2-c][1]benzopyran]

IC50 [2]: 0.7 nM
Compound: Oc1ccc2c(c1)OC(c1ccc(OCCN3CCCCC3)cc1)c1c-2oc2cc(O)ccc12 (stereo not drawn) [Example 11, 3,9-Dihydroxy-6-[4-[2-(1-piperidinyl)ethoxy]phenyl]-6-H-benzofuro[3,2-c][1]benzopyran]
change in vivo at 0.1 mg/kg (uterus; [3]): -8.8%
change in vivo at 1 mg/kg (uterus; [3]): 3%
change in vivo at 10 mg/kg (uterus; [3]): -12.6%
Uterine EPO (V. max) ([1]; 0.1 mg/kg): 2.7
Uterine EPO (V. max) ([1]; 1.0 mg/kg): 4.2
Uterine EPO (V. max) ([1]; 10.0 mg/kg): 4.2
inhibition in vivo at 0.1 mg/kg (Serum Cholesterol; [4]): 17.4%
inhibition in vivo at 1 mg/kg (Serum Cholesterol; [4]): 30.9%
inhibition in vivo at 10 mg/kg (Serum Cholesterol; [4]): 36.3%

Compound: CN(C)CCOc1ccc(C2Oc3cc(O)ccc3-c3sc4cc(O)ccc4c32)cc1 (stereo not drawn) [Example 9, 3,9-Dihydroxy-6-[4-(2-dimethylaminoethoxy)phenyl]-6-H-[1]benzothieno[3,2-c][1]benzopyran]
change in vivo at 0.1 mg/kg (uterus; [3]): 77.8%
Uterine EPO (V. max) ([1]; 0.1 mg/kg): 52.2
inhibition in vivo at 0.1 mg/kg (Serum Cholesterol; [4]): 40.1%

Compound: c1ccc2c(c1)OC(c1ccc(OCCN3CCCCC3)cc1)c1c-2sc2ccccc12 (stereo not drawn) [Example 7, 6-[4-[2-(1-piperidinyl)ethoxy]phenyl]-6-H-[1]benzothieno[3,2-c][1]benzopyran]
change in vivo at 0.1 mg/kg (uterus; [3]): 28.9%
change in vivo at 1 mg/kg (uterus; [3]): 31.2%
change in vivo at 10 mg/kg (uterus; [3]): 14.7%
Uterine EPO (V. max) ([1]; 0.1 mg/kg): 4.8
Uterine EPO (V. max) ([1]; 1.0 mg/kg): 6.6
Uterine EPO (V. max) ([1]; 10.0 mg/kg): 3.6
inhibition in vivo at 0.1 mg/kg (Serum Cholesterol; [4]): 39.8%
inhibition in vivo at 1 mg/kg (Serum Cholesterol; [4]): 65.5%
inhibition in vivo at 10 mg/kg (Serum Cholesterol; [4]): 54%

Compound: C#CC1(O)CCC2C3CCc4cc(O)ccc4C3CCC21C (stereo not drawn) [EE2, 17α-ethynyl estradiol, reference compound]
change in vivo at 0.1 mg/kg (uterus; [3]): 86.3%
Uterine weight (result in words) (uterus; EE2 at 0.1 mg/kg/day): uterine weight was substantially greater than the uterine weight of ovariectomized test animals
Uterine EPO (V. max) ([1]; 0.1 mg/kg): 116.4
Eosinophil infiltration into the uterus (stromal layer) [1]: substantial, expected increase in eosinophil infiltration
inhibition in vivo at 0.1 mg/kg (Serum Cholesterol; [4]): 81.4%
Serum cholesterol (result in words) (Serum Cholesterol; EE2 at 0.1 mg/kg/day): caused a decrease in serum cholesterol
Distal Femur Metaphysis (X-ray Image Analysis-Gray Score), percent protection relative to ovariectomy (Distal Femur Metaphysis; 0.1 mg/kg): 62.4%
Prevention of bone loss (result in words) (Distal Femur Metaphysis; OVX rats, 35 days): prevented this loss

Compound: Oc1ccc2c(c1)OC(c1ccc(OCCN3CCCC3)cc1)c1c-2sc2cc(O)ccc12 (stereo not drawn) [Example 8, 3,9-Dihydroxy-6-[4-[2-(1-pyrrolidinyl)ethoxy]phenyl]-6-H-[1]benzothieno[3,2-c][1]benzopyran]
change in vivo at 0.01 mg/kg (uterus; Rattus norvegicus, 96 h, 0.01 mg/kg, daily for 4 days, read-out: Uterine Weight (% increase vs. OVX)): 10.2%
change in vivo at 0.1 mg/kg (uterus; [3]): 27.4%
change in vivo at 1 mg/kg (uterus; [3]): 27.2%
Uterine EPO (V. max) ([1]; 0.01 mg/kg): 2.1
Uterine EPO (V. max) ([1]; 0.1 mg/kg): 4.8
Uterine EPO (V. max) ([1]; 1.0 mg/kg): 4.8
inhibition in vivo at 0.01 mg/kg (Serum Cholesterol; Rattus norvegicus, 96 h, 0.01 mg/kg, daily for 4 days, read-out: Serum Cholesterol (% decrease vs. OVX)): 50.5%
inhibition in vivo at 0.1 mg/kg (Serum Cholesterol; [4]): 38.5%
inhibition in vivo at 1 mg/kg (Serum Cholesterol; [4]): 68%
